Patent publication US20090069373A1, “Quinoline Acids” (Wyeth, priority 2007, published 2009)

Legend:
[1] = molecular target: T1, human LXRβ (Homo sapiens, UniProt P55055); test: Ligand-binding test procedure for human LXRβ (3H T0901317 competition, flash plates); conditions: for Binding ratio a/b: IC50 (μM) LXRα binding/IC50 (μM) LXRβ binding; for IC50: biotinylated hLXRβ, tracer 3H T0901317
T1 construct: biotin (biotinylated; biotinylation tag not described); made in house; host or cells: E. coli
T1 sequence (P55055 1-460): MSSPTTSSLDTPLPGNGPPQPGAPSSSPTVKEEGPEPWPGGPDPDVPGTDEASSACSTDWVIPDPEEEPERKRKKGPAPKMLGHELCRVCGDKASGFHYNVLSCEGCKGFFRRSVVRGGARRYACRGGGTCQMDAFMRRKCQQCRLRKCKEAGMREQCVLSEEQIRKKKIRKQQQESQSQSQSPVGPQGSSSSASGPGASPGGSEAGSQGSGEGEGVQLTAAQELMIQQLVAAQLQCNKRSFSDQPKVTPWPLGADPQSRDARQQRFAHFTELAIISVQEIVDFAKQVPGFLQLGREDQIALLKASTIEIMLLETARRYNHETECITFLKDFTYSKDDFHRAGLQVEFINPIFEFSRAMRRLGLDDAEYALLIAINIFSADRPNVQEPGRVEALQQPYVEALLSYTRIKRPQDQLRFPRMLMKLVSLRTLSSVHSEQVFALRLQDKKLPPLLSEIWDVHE
Protocol: Ligand-Binding Test Procedure for Human LXRβ.
Receptor source: E. coli extract from cells expressing biotinylated hLXRβ. Extract was made in a similar buffer as above, but with 50 mM TRIS.
(§1) Washed streptavidin and coated flash plates with wash buffer.
(§2) Diluted receptor extract to give Bmax ˜4000 cpm and add to the wells.
(§3) Wrapped the plates in aluminum foil and stored them at +4° C. over night.
(§4) Made a dilution series in DMSO of the test ligands.
(§5) Made a 5 nM solution of the radioactive tracer in buffer.
(§6) Mixed 250 μl diluted tracer with 5 μl of the test ligand from each concentration of the dilution series.
(§7) Washed the receptor-coated flash plates.
(§8) Added 200 μl per well of the ligand/radiolabel mixture to the receptor-coated flash plates.
(§9) Wrapped the plates in aluminum foil and incubate at +4° C. over night.
(§10) Aspirated wells, and wash the flashed plates. Sealed the plate.
(§11) Measured the remaining radioactivity in the plate.

[2] = molecular target: T2, human LXRα (Homo sapiens, UniProt Q13133); test: Ligand-binding test procedure for human LXRα (3H T0901317 competition, flash plates); conditions: biotinylated hLXRα, tracer 3H T0901317
T2 construct: biotin (biotinylated; biotinylation tag not described); made in house; host or cells: E. coli
T2 sequence (Q13133 1-447): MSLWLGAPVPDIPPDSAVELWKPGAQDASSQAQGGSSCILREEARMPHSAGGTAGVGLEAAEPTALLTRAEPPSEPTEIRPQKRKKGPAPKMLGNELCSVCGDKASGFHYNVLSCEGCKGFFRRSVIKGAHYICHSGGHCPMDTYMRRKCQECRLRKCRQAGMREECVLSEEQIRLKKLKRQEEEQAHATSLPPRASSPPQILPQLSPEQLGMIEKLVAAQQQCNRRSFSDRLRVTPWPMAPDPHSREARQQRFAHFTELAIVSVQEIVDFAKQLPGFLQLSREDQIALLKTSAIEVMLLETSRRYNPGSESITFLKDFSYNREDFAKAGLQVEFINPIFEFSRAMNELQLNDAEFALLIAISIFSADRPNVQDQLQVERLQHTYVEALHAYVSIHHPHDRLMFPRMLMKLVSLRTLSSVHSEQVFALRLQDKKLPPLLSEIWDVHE
Protocol: Ligand-Binding Test Procedure for Human LXRα.
Receptor source: E. coli extract from cells expressing biotinylated hLXRα. Extract was made in a similar buffer as above, but with 50 mM TRIS.
as §1, §2, §3, §4, §5, §6, §7, §8, §9, §10, §11

## O=C(O)c1cccc2c(NCc3cccc(-c4ccnc5c(C(F)(F)F)cccc45)c3)cccc12 [Example 48, 5-({3-[8-(trifluoromethyl)quinolin-4-yl]benzyl}amino)-1-naphthoic acid]
[1]
  Binding ratio a/b: 6
  IC50: 538 nM
[2]
  IC50: 3270 nM

## O=C(O)Cc1cccc(NCc2cccc(-c3c(Cc4ccccc4)cnc4c(C(F)(F)F)cccc34)c2)c1 [Example 30, [3-({3-[3-benzyl-8-(trifluoromethyl)quinolin-4-yl]benzyl}amino)phenyl]acetic acid]
[1]
  Binding ratio a/b: 8
  IC50: 9 nM
[2]
  IC50: 72 nM

## CC(C)C[C@H](NC(=O)c1cccc(COc2cccc(-c3c(Cc4ccccc4)cnc4c(C(F)(F)F)cccc34)c2)c1)C(=O)O [Example 96, N-[3-({3-[3-benzyl-8-(trifluoromethyl)quinolin-4-yl]phenoxy}methyl)benzoyl]leucine]
[1]
  Binding ratio a/b: 2
  IC50: 546 nM
[2]
  IC50: 1160 nM

## O=C(O)c1ccc(Cn2ccc3c(-c4c(Cc5ccccc5)cnc5c(C(F)(F)F)cccc45)cccc32)cc1 [Example 127, 4-({4-[3-Benzyl-8-(trifluoromethyl)quinolin-4-yl]-1H-indol-1-yl}methyl)benzoic acid]
[1]
  Binding ratio a/b: 1
  IC50: 2460 nM
[2]
  IC50: 2140 nM

## O=C(O)c1cc(F)ccc1OCc1cccc(-c2c(Cc3ccccc3)cnc3c(C(F)(F)F)cccc23)c1 [Example 104, 2-({3-[3-benzyl-8-(trifluoromethyl)quinolin-4-yl]benzyl}oxy)-5-fluorobenzoic acid]
[1]
  Binding ratio a/b: 1
  IC50: 2150 nM
[2]
  IC50: 3200 nM

## O=C(O)Cc1ccc(NCc2cncc(-c3ccnc4c(C(F)(F)F)cccc34)c2)cc1 [Example 120, {4-[({5-[8-(trifluoromethyl)quinolin-4-yl]pyridin-3-yl}methyl)amino]phenyl}acetic acid]
[1]
  IC50: > 1000 nM
[2]
  IC50: > 1000 nM

## O=C(O)c1ccccc1NCc1cccc(-c2c(Cc3ccccc3)cnc3c(C(F)(F)F)cccc23)c1 [Example 97, 2-({3-[3-benzyl-8-(trifluoromethyl)quinolin-4-yl]benzyl}amino)benzoic acid]
[1]
  Binding ratio a/b: 2
  IC50: 237 nM
[2]
  IC50: 493 nM

## Cn1c(C(=O)O)cc2cccc(NCc3cccc(-c4c(Cc5ccccc5)cnc5c(C(F)(F)F)cccc45)c3)c21 [Example 105, 7-({3-[3-benzyl-8-(trifluoromethyl)quinolin-4-yl]benzyl}amino)-1-methyl-1H-indole-2-carboxylic acid]
[1]
  Binding ratio a/b: 1
  IC50: 129 nM
[2]
  IC50: 185 nM

## O=C(N[C@@H](Cc1c[nH]cn1)C(=O)O)c1cccc(COc2cccc(-c3c(Cc4ccccc4)cnc4c(C(F)(F)F)cccc34)c2)c1 [Example 72, N-[3-({3-[3-benzyl-8-(trifluoromethyl)quinolin-4-yl]phenoxy}methyl)benzoyl]histidine]
[1]
  Binding ratio a/b: 4
  IC50: 309 nM
[2]
  IC50: 1100 nM

## Cc1ccc(C(=O)O)cc1C#Cc1cccc(-c2c(Cc3ccccc3)cnc3c(C(F)(F)F)cccc23)c1 [Example 129, 3-({3-[3-Benzyl-8-(trifluoromethyl)quinolin-4-yl]phenyl}ethynyl)-4-methylbenzoic acid]
[1]
  Binding ratio a/b: 1
  IC50: 605 nM
[2]
  IC50: 656 nM

## Cn1c(C(=O)O)cc2cc(NCc3cccc(-c4c(Cc5ccccc5)cnc5c(C(F)(F)F)cccc45)c3)ccc21 [Example 63, 5-({3-[3-benzyl-8-(trifluoromethyl)quinolin-4-yl]benzyl}amino)-1-methyl-1H-indole-2-carboxylic acid]
[1]
  Binding ratio a/b: 5
  IC50: 332 nM
[2]
  IC50: 1530 nM

## Cc1cc(NCc2ccc(-c3c(Cc4ccccc4)cnc4c(C(F)(F)F)cccc34)s2)c(C)cc1CC(=O)O [Example 47, {4-[({5-[3-benzyl-8-(trifluoromethyl)quinolin-4-yl]-2-thienyl}methyl)amino]-2,5-dimethylphenyl}acetic acid]
[1]
  Binding ratio a/b: 6
  IC50: 2 nM
[2]
  IC50: 13 nM

## O=C(O)c1ccc(F)cc1NCc1cccc(-c2c(Cc3ccccc3)cnc3c(C(F)(F)F)cccc23)c1 [Example 41, 2-({3-[3-benzyl-8-(trifluoromethyl)quinolin-4-yl]benzyl}amino)-4-fluorobenzoic acid]
[1]
  Binding ratio a/b: 7
  IC50: 50 nM
[2]
  IC50: 331 nM

## O=C(O)C1CCN(C(=O)c2ccc(COc3cccc(-c4c(Cc5ccccc5)cnc5c(C(F)(F)F)cccc45)c3)cc2)CC1 [Example 60, 1-[4-({3-[3-benzyl-8-(trifluoromethyl)quinolin-4-yl]phenoxy}methyl)benzoyl]piperidine-4-carboxylic acid]
[1]
  Binding ratio a/b: 5
  IC50: 38 nM
[2]
  IC50: 178 nM

## O=C(N[C@@H](Cc1c[nH]cn1)C(=O)O)c1ccc(COc2cccc(-c3c(Cc4ccccc4)cnc4c(C(F)(F)F)cccc34)c2)cc1 [Example 61, N-[4-({3-[3-benzyl-8-(trifluoromethyl)quinolin-4-yl]phenoxy}methyl)benzoyl]histidine]
[1]
  Binding ratio a/b: 5
  IC50: 145 nM
[2]
  IC50: 681 nM

## O=C(O)c1cc(F)cc(Oc2cccc(-c3c(Cc4ccccc4)cnc4c(Cl)cccc34)c2)c1 [Example 123, 3-[3-(3-Benzyl-8-chloroquinolin-4-yl)phenoxy]-5-fluorobenzoic acid]
[1]
  Binding ratio a/b: 2
  IC50: 481 nM
[2]
  IC50: 723 nM

## O=C(O)c1cc2cccc(NCc3cccc(-c4c(Cc5ccccc5)cnc5c(C(F)(F)F)cccc45)c3)c2[nH]1 [Example 77, 7-({3-[3-benzyl-8-(trifluoromethyl)quinolin-4-yl]benzyl}amino)-1H-indole-2-carboxylic acid]
[1]
  Binding ratio a/b: 3
  IC50: 408 nM
[2]
  IC50: 1250 nM

## Cc1cc(C(=O)O)cc(C)c1OCc1cccc(-c2c(Cc3ccccc3)cnc3c(C(F)(F)F)cccc23)c1 [Example 26, 4-({3-[3-benzyl-8-(trifluoromethyl)quinolin-4-yl]benzyl}oxy)-3,5-dimethylbenzoic acid]
[1]
  Binding ratio a/b: 10
  IC50: 32 nM
[2]
  IC50: 325 nM

## Cc1cnc2c(C(F)(F)F)cccc2c1-c1cccc(CNc2cccc3c(C(=O)O)cccc23)c1 [Example 80, 5-({3-[3-methyl-8-(trifluoromethyl)quinolin-4-yl]benzyl}amino)-1-naphthoic acid]
[1]
  Binding ratio a/b: 3
  IC50: 129 nM
[2]
  IC50: 374 nM

## Cc1c(CC(=O)O)ccc(NCc2cncc(-c3c(Cc4ccccc4)cnc4c(C(F)(F)F)cccc34)c2)c1C [Example 10, {4-[({5-[3-Benzyl-8-(trifluoromethyl)quinolin-4-yl]pyridin-3-yl}methyl)amino]-2,3-dimethylphenyl}acetic acid]
[1]
  Binding ratio a/b: 22
  IC50: 28 nM
[2]
  IC50: 615 nM

## O=C(O)CCc1ccc(NCc2cccc(-c3c(Cc4ccccc4)cnc4c(C(F)(F)F)cccc34)c2)cc1 [Example 27, 3-[4-({3-[3-benzyl-8-(trifluoromethyl)quinolin-4-yl]benzyl}amino)phenyl]propanoic acid]
[1]
  Binding ratio a/b: 10
  IC50: 34 nM
[2]
  IC50: 333 nM

## O=C(O)CCc1cccc(NCc2cccc(-c3c(Cc4ccccc4)cnc4c(C(F)(F)F)cccc34)c2)c1 [Example 43, 3-[3-({3-[3-benzyl-8-(trifluoromethyl)quinolin-4-yl]benzyl}amino)phenyl]propanoic acid]
[1]
  Binding ratio a/b: 6
  IC50: 2 nM
[2]
  IC50: 15 nM

## O=C(O)c1c(Cl)cccc1NCc1cccc(-c2c(Cc3ccccc3)cnc3c(C(F)(F)F)cccc23)c1 [Example 111, 2-({3-[3-benzyl-8-(trifluoromethyl)quinolin-4-yl]benzyl}amino)-6-chlorobenzoic acid]
[1]
  Binding ratio a/b: 1
  IC50: 709 nM
[2]
  IC50: 874 nM

## O=C(O)Cc1cccc2ccc(OCc3cccc(-c4ccnc5c(C(F)(F)F)cccc45)c3)cc12 [Example 107, [7-({3-[8-(trifluoromethyl)quinolin-4-yl]benzyl}oxy)-1-naphthyl]acetic acid]
[1]
  Binding ratio a/b: 1
  IC50: 5540 nM
[2]
  IC50: 7380 nM
